Data: patent publication US8093249B2, “Pyrazolo[1,5-A]pyrimidine-carbonyl-piperazine derivatives” (Convergence Pharmaceuticals Limited, priority 2008, dated 2012)

The compounds below were run against T1, hCaV2.2 (Homo sapiens, UniProt Q00975) (assay: hCaV2.2 assay (IonWorks planar array electrophysiology, HEK293 stable cell line)). Details: inhibition of current elicited by the 1st depolarizing pulse by 50%, HEK293 cells expressing human CaV2.2 α/β3/α2δ1; read-out: mean pIC50 value (tonic pIC50) (converted).
T1 construct: expressed in transfected cells; plasmids pCIN5-hCaV2.2, pCIH-hCaV β3, pCIP-α2δ1
Assay type: cell-based
From the text: Compounds of the invention may be tested for in vitro biological activity in the hCaV2.2 assay in accordance with the following studies:
Stable cell lines expressing the human CaV2.2 α (α1B) subunit, along with the human β3 and α2δ1 auxillary subunits were created following sequential transfection and selection of human embryonic kidney (HEK293) cells. […] Initially HEK293 cells were transfected with two plasmid vectors for expression of the hCaV2.2 α subunit (pCIN5-hCaV2.2 which carries a neomycin resistance marker) and the hCaV β3 subunit (pCIH-hCaV β3 which carries a hygromycin resistance marker). […] These clonal cell lines were assessed for Cav2.2 α/β3-mediated current expression using the IonWorks planar array electrophysiology technology (described below). […] Expression of all three subunits within this cell line was continuously maintained by the inclusion of G418 (0.4 mg ml^−1), hygromycin (0.1 mg ml^−1) and puromycin (0.62 μg ml^−1). Cells were maintained at 37° C. in a humidified environment containing 5% CO2 in air.
Cells were grown to 30-60% confluence in T175 flasks and maintained at 30° C. for 24 hours prior to recording. […] Lifted cells were suspended in 10 ml of extracellular buffer. Cell suspension was then placed into a 15 ml tube and centrifuged for 2 minutes at 700 rpm. After centrifugation, the supernatant was removed and the cell pellet was resuspended in 4.5 ml of extracellular solution.
Currents were recorded at room temperature (21-23° C.) using the IonWorks planar array electrophysiology technology (Molecular Devices Corp.). Stimulation protocols and data acquisition were carried out using a microcomputer (Dell Pentium 4). In order to determine planar electrode hole resistances (Rp), a 10 mV, 160 ms potential difference was applied across each hole. These measurements were performed before cell addition. After cell addition a seal test was performed prior to antibiotic (amphotericin) circulation to achieve intracellular access. Leak subtraction was conducted in all experiments by applying a 160 ms hyperpolarizing (10 mV) prepulse 200 ms before the test pulses to measure leak conductance. Test pulses stepping from the holding potential (VH) of −90 mV to +10 mV were applied for 20 ms and repeated 10 times at a frequency of 10 Hz. In all experiments, the test pulse protocol was performed in the absence (pre-read) and presence (post-read) of a compound. Pre- and post-reads were separated by a compound addition followed by a 3-3.5 min incubation.
The intracellular solution contained the following (in mM): K-gluconate 120, KCl 20 mM, MgCl2 5, EGTA 5, HEPES 10, adjusted to pH 7.3. Amphotericin was prepared as 30 mg/ml stock solution and diluted to a final working concentration of 0.2 mg ml^−1 in intracellular buffer solution. The extracellular solution contained the following (in mM): Na-gluconate 120, NaCl 20, MgCl2 1, HEPES 10, BaCl2 5, adjusted to pH 7.4.
Finally the compounds were diluted 1:100 in external solution resulting in a final DMSO concentration of 1%.
Paired comparisons between pre-compound and post-compound additions were used to determine the inhibitory effect of each compound. […] In addition the use-dependent inhibitory properties of the compounds were determined by assessing the effect of compounds on the 10th versus 1st depolarizing pulse. The ratio of the 10th over 1st pulse was determined in the absence and presence of drug and the % use-dependent inhibition calculated.
Compounds were tested in the form as described in the Examples. […] Variations in pUD30 and pIC50 values may arise between tests.

T1 sequence (Q00975 whole entry): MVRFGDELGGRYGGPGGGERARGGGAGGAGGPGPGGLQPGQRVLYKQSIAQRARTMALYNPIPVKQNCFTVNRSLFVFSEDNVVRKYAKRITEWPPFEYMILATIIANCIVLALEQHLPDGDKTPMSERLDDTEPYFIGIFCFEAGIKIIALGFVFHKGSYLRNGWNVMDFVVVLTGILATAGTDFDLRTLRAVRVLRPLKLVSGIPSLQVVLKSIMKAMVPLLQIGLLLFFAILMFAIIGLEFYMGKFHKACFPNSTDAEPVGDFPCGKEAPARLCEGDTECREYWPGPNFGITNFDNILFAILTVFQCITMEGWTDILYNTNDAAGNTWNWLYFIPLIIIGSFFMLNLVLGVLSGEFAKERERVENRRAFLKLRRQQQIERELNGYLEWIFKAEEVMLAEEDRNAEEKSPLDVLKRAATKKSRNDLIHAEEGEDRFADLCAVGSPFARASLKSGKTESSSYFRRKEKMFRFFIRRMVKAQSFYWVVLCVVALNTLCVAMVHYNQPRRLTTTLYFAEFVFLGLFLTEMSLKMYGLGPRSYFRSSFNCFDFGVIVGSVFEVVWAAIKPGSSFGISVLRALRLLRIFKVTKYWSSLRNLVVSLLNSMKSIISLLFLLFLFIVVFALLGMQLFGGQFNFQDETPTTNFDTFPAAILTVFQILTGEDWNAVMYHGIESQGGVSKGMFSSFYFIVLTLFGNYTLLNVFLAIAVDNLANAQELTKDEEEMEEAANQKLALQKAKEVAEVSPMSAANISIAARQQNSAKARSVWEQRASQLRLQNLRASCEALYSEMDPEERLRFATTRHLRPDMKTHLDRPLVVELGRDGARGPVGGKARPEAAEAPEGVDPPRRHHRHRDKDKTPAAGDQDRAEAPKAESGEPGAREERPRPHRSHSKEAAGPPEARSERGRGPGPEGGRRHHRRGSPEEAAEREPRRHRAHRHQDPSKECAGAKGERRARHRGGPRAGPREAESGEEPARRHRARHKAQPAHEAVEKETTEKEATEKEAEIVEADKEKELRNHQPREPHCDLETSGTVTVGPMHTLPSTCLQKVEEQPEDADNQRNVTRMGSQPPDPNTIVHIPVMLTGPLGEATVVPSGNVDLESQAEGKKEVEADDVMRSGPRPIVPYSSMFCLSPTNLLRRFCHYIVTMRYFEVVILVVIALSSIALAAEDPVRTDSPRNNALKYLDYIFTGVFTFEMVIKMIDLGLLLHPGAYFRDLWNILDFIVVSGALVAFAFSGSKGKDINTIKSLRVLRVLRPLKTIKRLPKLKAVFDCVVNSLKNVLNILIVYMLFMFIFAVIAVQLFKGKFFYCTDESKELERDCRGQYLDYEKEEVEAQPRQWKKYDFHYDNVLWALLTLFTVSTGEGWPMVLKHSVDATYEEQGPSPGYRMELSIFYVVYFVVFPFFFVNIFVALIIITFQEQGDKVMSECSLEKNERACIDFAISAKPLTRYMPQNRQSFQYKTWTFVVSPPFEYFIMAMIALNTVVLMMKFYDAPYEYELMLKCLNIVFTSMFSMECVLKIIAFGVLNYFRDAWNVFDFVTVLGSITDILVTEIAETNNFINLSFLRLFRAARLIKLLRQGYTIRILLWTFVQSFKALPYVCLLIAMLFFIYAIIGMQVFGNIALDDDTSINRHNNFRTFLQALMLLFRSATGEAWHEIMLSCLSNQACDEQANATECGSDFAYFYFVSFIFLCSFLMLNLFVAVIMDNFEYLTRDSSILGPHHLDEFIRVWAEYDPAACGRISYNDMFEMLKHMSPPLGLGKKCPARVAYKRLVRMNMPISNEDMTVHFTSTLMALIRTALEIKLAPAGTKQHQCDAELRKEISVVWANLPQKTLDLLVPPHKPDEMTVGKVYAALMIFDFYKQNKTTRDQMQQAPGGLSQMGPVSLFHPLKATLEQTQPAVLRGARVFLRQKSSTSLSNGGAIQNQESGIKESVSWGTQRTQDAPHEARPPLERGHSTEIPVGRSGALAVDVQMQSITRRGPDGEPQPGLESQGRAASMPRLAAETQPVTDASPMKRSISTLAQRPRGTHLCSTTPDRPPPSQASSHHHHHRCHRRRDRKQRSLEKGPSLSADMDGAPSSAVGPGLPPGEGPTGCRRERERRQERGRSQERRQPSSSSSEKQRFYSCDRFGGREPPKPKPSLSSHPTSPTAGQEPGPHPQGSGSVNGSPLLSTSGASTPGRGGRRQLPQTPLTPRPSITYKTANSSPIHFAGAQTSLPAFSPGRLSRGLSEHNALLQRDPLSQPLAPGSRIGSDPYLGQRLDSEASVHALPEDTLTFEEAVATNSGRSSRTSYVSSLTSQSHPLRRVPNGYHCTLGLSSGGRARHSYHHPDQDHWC
T1 sequence (P54284 whole entry partner): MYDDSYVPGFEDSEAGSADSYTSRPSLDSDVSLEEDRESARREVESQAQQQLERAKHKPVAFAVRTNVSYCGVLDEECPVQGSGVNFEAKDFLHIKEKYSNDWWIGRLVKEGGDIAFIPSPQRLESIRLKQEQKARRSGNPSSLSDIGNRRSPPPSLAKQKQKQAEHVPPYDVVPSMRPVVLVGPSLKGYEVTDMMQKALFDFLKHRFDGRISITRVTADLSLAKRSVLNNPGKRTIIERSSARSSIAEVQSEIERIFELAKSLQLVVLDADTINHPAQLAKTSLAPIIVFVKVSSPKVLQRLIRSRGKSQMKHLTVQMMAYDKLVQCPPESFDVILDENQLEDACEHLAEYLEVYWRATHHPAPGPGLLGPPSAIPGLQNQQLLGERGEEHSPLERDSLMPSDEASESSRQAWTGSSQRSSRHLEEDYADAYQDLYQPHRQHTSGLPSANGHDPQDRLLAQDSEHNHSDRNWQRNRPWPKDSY
T1 sequence (P54289 25-946 partner limits assumed): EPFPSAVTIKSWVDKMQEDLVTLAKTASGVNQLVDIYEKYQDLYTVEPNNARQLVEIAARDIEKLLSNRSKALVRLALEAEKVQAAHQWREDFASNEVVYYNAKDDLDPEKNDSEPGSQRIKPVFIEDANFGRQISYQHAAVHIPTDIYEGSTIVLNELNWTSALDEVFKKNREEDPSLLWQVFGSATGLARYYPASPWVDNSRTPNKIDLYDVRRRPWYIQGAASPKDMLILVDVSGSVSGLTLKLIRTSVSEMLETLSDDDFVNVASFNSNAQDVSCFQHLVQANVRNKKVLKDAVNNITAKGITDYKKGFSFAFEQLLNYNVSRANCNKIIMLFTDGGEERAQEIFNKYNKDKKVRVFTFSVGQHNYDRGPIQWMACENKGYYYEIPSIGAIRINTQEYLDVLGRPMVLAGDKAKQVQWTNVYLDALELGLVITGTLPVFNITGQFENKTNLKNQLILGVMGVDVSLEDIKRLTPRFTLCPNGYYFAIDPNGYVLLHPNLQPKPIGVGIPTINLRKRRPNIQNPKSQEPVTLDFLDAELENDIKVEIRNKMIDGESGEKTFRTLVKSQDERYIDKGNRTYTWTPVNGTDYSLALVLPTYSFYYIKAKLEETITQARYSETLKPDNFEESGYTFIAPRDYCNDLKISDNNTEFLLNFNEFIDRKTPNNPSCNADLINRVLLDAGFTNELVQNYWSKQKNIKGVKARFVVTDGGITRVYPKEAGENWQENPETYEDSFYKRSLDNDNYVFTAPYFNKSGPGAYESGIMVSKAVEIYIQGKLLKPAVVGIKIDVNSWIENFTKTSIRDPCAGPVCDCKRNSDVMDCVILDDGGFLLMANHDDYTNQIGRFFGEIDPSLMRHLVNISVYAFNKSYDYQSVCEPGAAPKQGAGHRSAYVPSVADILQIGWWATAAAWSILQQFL
T1 sequence (P54289 947-1103 partner limits assumed): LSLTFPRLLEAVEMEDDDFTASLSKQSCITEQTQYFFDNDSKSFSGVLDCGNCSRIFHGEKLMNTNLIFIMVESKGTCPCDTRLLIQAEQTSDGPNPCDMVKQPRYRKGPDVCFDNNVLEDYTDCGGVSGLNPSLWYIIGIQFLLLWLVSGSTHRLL

Row | Structure (SMILES) | IC50
1 | Cc1nn2cccnc2c1C(=O)N1CCN(S(=O)(=O)c2ccc(C(F)(F)F)cc2)C[C@@H]1C [Example 20, 2-methyl-3-[((2S)-2-methyl-4-{[4-(trifluoromethyl)phenyl]sulfonyl}-1-piperazinyl)carbonyl]pyrazolo[1,5-a] pyrimidine] | ≥ 10 µM
2 | Cc1cc(C#N)ccc1S(=O)(=O)N1CCN(C(=O)c2cnn3cc(Cl)cnc23)[C@@H](C)C1 [Example 16, 4-({(3S)-4-[(6-chloropyrazolo[1,5-a]pyrimidin-3-yl)carbonyl]-3-methyl-1-piperazinyl}sulfonyl)-3-methylbenzonitrile] | ≥ 10 µM
3 | Cc1cc(C#N)ccc1S(=O)(=O)N1CCN(C(=O)c2c(C)nn3cccnc23)[C@@H](C)C1 [Example 24, 3-methyl-4-({(3S)-3-methyl-4-[(2-methylpyrazolo[1,5-a]pyrimidin-3-yl)carbonyl]-1-piperazinyl}sulfonyl)benzonitrile] | ≥ 31.6 µM
4 | C[C@H]1CN(S(=O)(=O)c2ccc(C(F)(F)F)cc2)CCN1C(=O)c1cnn2cc(F)cnc12 [Example 9, 6-Fluoro-3-[((2S)-2-methyl-4-{[4-(trifluoromethyl)phenyl]sulfonyl}-1-piperazinyl)carbonyl]pyrazolo[1,5-a]pyrimidine] | ≥ 10 µM
5 | C[C@H]1CN(S(=O)(=O)c2ccc(OC(F)(F)F)cc2)CCN1C(=O)c1cnn2cccnc12 [Example 11, 3-{[(2S)-2-methyl-4-({4-[(trifluoromethyl)oxy]phenyl}sulfonyl)-1-piperazinyl]carbonyl}pyrazolo[1,5-a]pyrimidine] | ≥ 31.6 µM
6 | Cc1ccc(C(F)(F)F)cc1S(=O)(=O)N1CCN(C(=O)c2cnn3cccnc23)[C@@H](C)C1 [Example 18, 3-[((2S)-2-methyl-4-{[2-methyl-5-(trifluoromethyl)phenyl]sulfonyl}-1-piperazinyl)carbonyl]pyrazolo[1,5-a] pyrimidine] | ≥ 31.6 µM
7 | C[C@@H]1CN(C(=O)c2cnn3cccnc23)CCN1S(=O)(=O)c1ccc(C(F)(F)F)cc1 [Example 3, 3-[((3R)-3-Methyl-4-{[4-(trifluoromethyl)phenyl]sulfonyl}-1-piperazinyl)carbonyl]pyrazolo[1,5-a]pyrimidine] | ≥ 31.6 µM
8 | C[C@H]1CN(C(=O)c2cnn3cccnc23)CCN1S(=O)(=O)c1ccc(C(F)(F)F)cc1 [Example 4, 3-[((3S)-3-Methyl-4-{[4-(trifluoromethyl)phenyl]sulfonyl}-1-piperazinyl)carbonyl]pyrazolo[1,5-a]pyrimidine] | ≥ 31.6 µM
9 | O=C(c1cnn2cccnc12)N1CCN(S(=O)(=O)c2ccc(OC(F)(F)F)cc2)CC1 [Example 8, 3-{[4-({4-[(trifluoromethyl)oxy]phenyl}sulfonyl)-1-piperazinyl]carbonyl}pyrazolo[1,5-a]pyrimidine] | ≥ 31.6 µM
10 | C[C@@H]1CN(S(=O)(=O)c2ccc(C(F)(F)F)cc2)CCN1C(=O)c1cnn2cccnc12 [Example 7, 3-[((2R)-2-Methyl-4-{[4-(trifluoromethyl)phenyl]sulfonyl}-1-piperazinyl)carbonyl]pyrazolo[1,5-a]pyrimidine] | ≥ 31.6 µM
11 | Cc1cnc2c(C(=O)N3CCN(S(=O)(=O)c4ccc(C#N)cc4C)C[C@@H]3C)cnn2c1 [Example 23, 3-methyl-4-({(3S)-3-methyl-4-[(6-methylpyrazolo[1,5-a]pyrimidin-3-yl)carbonyl]-1-piperazinyl}sulfonyl)benzonitrile] | ≥ 31.6 µM
12 | O=C(c1cnn2cccnc12)N1CCN(S(=O)(=O)c2ccc(C(F)(F)F)cc2)CC1 [Example 1, 3-[(4-{[4-(Trifluoromethyl)phenyl]sulfonyl}-1-piperazinyl)carbonyl]pyrazolo[1,5-a]pyrimidine] | ≥ 31.6 µM
13 | Cc1cnc2c(C(=O)N3CCN(S(=O)(=O)c4ccc(C(F)(F)F)cc4)CC3)cnn2c1 [Example 6, 6-Methyl-3-[(4-{[4-(trifluoromethyl)phenyl]sulfonyl}-1-piperazinyl)carbonyl]pyrazolo[1,5-a]pyrimidine] | ≥ 31.6 µM
14 | C[C@@H]1CN(S(=O)(=O)c2ccc(OC(F)(F)F)cc2)CCN1C(=O)c1cnn2cccnc12 [Example 22, 3-{[(2R)-2-methyl-4-({4-[(trifluoromethyl)oxy]phenyl}sulfonyl)-1-piperazinyl]carbonyl}pyrazolo[1,5-a] pyrimidine] | ≥ 31.6 µM
15 | C[C@H]1CN(C(=O)c2cnn3cccnc23)CCN1S(=O)(=O)c1ccc(OC(F)(F)F)cc1 [Example 15, 3-{[(3S)-3-methyl-4-({4-[(trifluoromethyl)oxy]phenyl}sulfonyl)-1-piperazinyl]carbonyl}pyrazolo[1,5-a] pyrimidine] | ≥ 31.6 µM
16 | Cc1cc(C)n2ncc(C(=O)N3CCN(S(=O)(=O)c4ccc(C(F)(F)F)cc4)CC3)c2n1 [Example 14, 5,7-dimethyl-3-[(4-{[4-(trifluoromethyl)phenyl]sulfonyl}-1-piperazinyl)carbonyl]pyrazolo[1,5-a] pyrimidine] | ≥ 31.6 µM
17 | C[C@H]1CN(S(=O)(=O)c2ccc(C(F)(F)F)cc2)CCN1C(=O)c1cnn2cccnc12 [Example 2, 3-[((2S)-2-Methyl-4-{[4-(trifluoromethyl)phenyl]sulfonyl}-1-piperazinyl)carbonyl]pyrazolo[1,5-a]pyrimidine] | ≥ 10 µM
18 | C[C@@H]1CN(C(=O)c2cnn3cccnc23)CCN1S(=O)(=O)c1ccc(OC(F)(F)F)cc1 [Example 21, 3-{[(3R)-3-methyl-4-({4-[(trifluoromethyl)oxy]phenyl}sulfonyl)-1-piperazinyl]carbonyl}pyrazolo[1,5-a] pyrimidine] | ≥ 31.6 µM
19 | Cc1cc(C#N)ccc1S(=O)(=O)N1CCN(C(=O)c2cnn3cccnc23)[C@@H](C)C1 [Example 5, 3-Methyl-4-{[(3S)-3-methyl-4-(pyrazolo[1,5-a]pyrimidin-3-ylcarbonyl)-1-piperazinyl]sulfonyl}benzonitrile] | ≥ 31.6 µM
20 | Cc1ccc(C(F)(F)F)cc1S(=O)(=O)N1CCN(C(=O)c2cnn3cccnc23)CC1 [Example 19, 3-[(4-{[2-methyl-5-(trifluoromethyl)phenyl]sulfonyl}-1-piperazinyl)carbonyl]pyrazolo[1,5-a] pyrimidine] | ≥ 31.6 µM

Same assay, conditions: mean pIC50 value (tonic pIC50), inhibition of current elicited by the 1st depolarizing pulse by 50%, HEK293 cells expressing human CaV2.2 α/β3/α2δ1

Row | Structure (SMILES) | IC50
21 | Cc1cc(C#N)ccc1S(=O)(=O)N1CCN(C(=O)c2cnn3cc(F)cnc23)[C@@H](C)C1 [Example 10, 4-({(3S)-4-[(6-fluoropyrazolo[1,5-a]pyrimidin-3-yl)carbonyl]-3-methyl-1-piperazinyl}sulfonyl)-3-methylbenzonitrile] | ≥ 31.6 µM
